Data on 8 molecules can be found in US20230248788A1, “COMPOSITIONS AND RELATED METHODS FOR SUPPORTING COMPANION ANIMALS WITH GASTROINTESTINAL DISORDERS” (priority 2020, published 2023).

In test [1] the test system is L. brevis WF-1B. The experiment in a line: Antibiotic susceptibility assay, broth microdilution. The settings on record: for MIC: antibiotic against L. brevis WF-1B; for susceptibility of L. brevis WF-1B to the antibiotic: MIC compared with EFSA cut-off value. It is filed as cell-based, Levilactobacillus brevis. Here is the method: Broth microdilution was used to determine the susceptibility of the L. brevis WF-1B isolate against eight commonly used clinical antibiotics. Broth micro-dilution was performed following the methods according to: International Organization for Standardization, Milk and milk products—Determination of the minimal inhibitory concentration (MIC) of antibiotics applicable to bifidobacteria and non-enterrococcal lactic acid bacteria (LAB) (ISO 10932:2012). Antibiotic stock solutions were prepared following the methods according to: CLSI, Performance Standards for Antimicrobial Susceptibility Testing, 23rd edition, CLSI Standard M100, Wayne, Pa.: Clinical and Laboratory Standards Institute; 2013. The measured minimum inhibitory concentrations (MICs) and microbiological cut-off values from the antibiotic susceptibility assays for L. brevis WF-1B are shown below in Table 5.

Test [2] has as its system L. brevis WF-1B. The settings on record: EFSA microbiological cut-off value; cited from earlier work.
Where [3] appears, read: Levilactobacillus brevis, WF1B, read-out: MIC.

Values after ≈ are worked out from the molar mass of the structure shown. Read-outs that look alike come from different tables or passages of the source.

With `CC1(C)S[C@@H]2[C@H](NC(=O)[C@H](N)c3ccccc3)C(=O)N2[C@H]1C(=O)O` [Ampicillin], the MIC – broadly, the smallest concentration in the dilution series that meets the test's criterion for growth inhibition – in the test on L. brevis WF-1B [1] (setting [3]) came to 8 µg/mL (≈ 22.9 µM). Also, in the test with L. brevis WF-1B [1], the “susceptibility of L. brevis WF-1B to the antibiotic” value (“susceptibility of L. brevis WF-1B” below) is given as “resistant”. Also, in the test on L. brevis WF-1B [2], the Cut-off value is 2 µg/mL.
As for `O=C(N[C@H](CO)[C@H](O)c1ccc([N+](=O)[O-])cc1)C(Cl)Cl` [Chloramphenicol], in the test on L. brevis WF-1B [1] (setting [3]), the MIC was 16 µg/mL (≈ 49.5 µM). Also, in the test with L. brevis WF-1B [1], the “susceptibility of L. brevis WF-1B” value is on record as “resistant”. The Cut-off value with L. brevis WF-1B [2] is 4 µg/mL.
Consider `CCC[C@@H]1C[C@@H](C(=O)N[C@@H]([C@H]2O[C@H](SC)[C@H](O)[C@@H](O)[C@H]2O)[C@H](C)Cl)N(C)C1` [Clindamycin], for which, in the test with L. brevis WF-1B [1] (setting [3]), the MIC was 8 µg/mL (≈ 18.8 µM).
Take `CC[C@H]1OC(=O)[C@H](C)[C@@H](O[C@H]2C[C@@](C)(OC)[C@@H](O)[C@H](C)O2)[C@H](C)[C@@H](O[C@@H]2O[C@H](C)C[C@H](N(C)C)[C@H]2O)[C@](C)(O)C[C@@H](C)C(=O)[C@H](C)[C@@H](O)[C@]1(C)O` [Erythromycin]: in the test on L. brevis WF-1B [1] (setting [3]), the MIC was determined as 0.83 µg/mL (≈ 1.13 µM). The “susceptibility of L. brevis WF-1B” value in the test with L. brevis WF-1B [1] was “sensitive”. Further, the Cut-off value in the test on L. brevis WF-1B [2] was 1 µg/mL.
As to `NC[C@H]1O[C@H](O[C@H]2[C@H](O)[C@@H](O[C@H]3O[C@H](CO)[C@@H](O)[C@H](N)[C@H]3O)[C@H](N)C[C@@H]2N)[C@H](O)[C@@H](O)[C@@H]1O` [Kanamycin], the MIC in the test with L. brevis WF-1B [1] (setting [3]) was found to be 85 µg/mL (≈ 175 µM).
For the molecule `[H]/N=C(/N)N[C@H]1[C@H](O)[C@@H](O)[C@H](O[C@@H]2O[C@@H](C)[C@](O)(C=O)[C@H]2O[C@@H]2O[C@@H](CO)[C@H](O)[C@@H](O)[C@@H]2NC)[C@@H](N/C(N)=N\[H])[C@@H]1O` [Streptomycin], the MIC in the test with L. brevis WF-1B [1] (setting [3]) was 8 µg/mL (≈ 13.8 µM). In addition, the “susceptibility of L. brevis WF-1B” value with L. brevis WF-1B [1] is “sensitive”. In addition, the Cut-off value in the test with L. brevis WF-1B [2] was 64 µg/mL.
In the case of `CN(C)[C@@H]1C(O)=C(C(N)=O)C(=O)[C@@]2(O)C(O)=C3C(=O)c4c(O)cccc4[C@@](C)(O)[C@H]3C[C@@H]12` [Tetracycline], the MIC in the test on L. brevis WF-1B [1] (setting [3]) worked out at 64 µg/mL (≈ 144 µM).
On to Gentamicin, for which, in the test with L. brevis WF-1B [1], the “susceptibility of L. brevis WF-1B” value is given as “sensitive” and the MIC amounted to 3 µg/mL. The Cut-off value in the test with L. brevis WF-1B [2] was 16 µg/mL.
